Assay [1] has as its system Bone marrow derived dendritic cells (BMDCs). Description: In vitro screening of oleamide and analogues: cytokine secretion by LPS-stimulated BMDCs. Format: cell-based, Balb/c mice. The conditions noted are these: for +LPS IL-12p40 / +LPS IL-12p70 / +LPS IL-23 / +LPS TNF-α: Table 3, BMDCs, 25 uM compound 1 hour prior to 100 ng/ml LPS, supernatants after 24 hours; for immunomodulatory effect: summary statement on the cytokine tables. On the procedure: FIG. 2: In vitro results: Bone marrow dendritic cells (BMDCs) were cultured in vitro and plated at 1×10^6 cells per ml. The BMDCs were conditioned with 25 uM oleamide 1 hour prior to stimulation with 100 ng/ml LPS (E. coli serotype R515). After 24 hours, the supernatants were removed and analysed for cytokine levels of IL-12p40, IL-12p70, IL-23 and TNF-alpha using specific immunoassays. (n=9)
FIGS. 4(A) to 4(G): In vitro Results: Bone marrow dendritic cells (BMDCs) were cultured in vitro and plated at 1×10^6 cells/ml. The BMDCs were conditioned with oleamide or its family of analogues at a concentration of 25 uM 1 hour prior to stimulation with 100 ng/ml LPS (E. coli serotype R515). After 24 hours, the supernatants were removed and analysed for levels of IL-12p40, IL-12p70, IL-23 and TNF-alpha using specific immunoassays. (n=9)
FIG. 6: Bone marrow-derived dendritic cells (BMDCs) were cultured in vitro and plated at 1×10^6 cells/ml. The BMDCs were conditioned with analogues of oleamide (compounds 19.2, 20.1, 36.2, 37.1 or 39.1) at a concentration of 25 μM 1 hour prior to stimulation with 100 ng/ml LPS (E. coli serotype R515). After 24 hours, the supernatants were removed and analysed for levels of IL-12p40, IL-12p70, IL-23 and TNF-alpha using specific immunoassays. (n=9)
FIG. 7: Bone marrow-derived dendritic cells (BMDCs) were cultured in vitro and plated at 1×10^6 cells/ml. The BMDCs were conditioned with analogues of oleamide (compounds 18.2, 21.2, 22.2, 23.2, 33.1 or 34.1 in panel A and 35.1, 38.1, 50.2 in panel B) at a concentration of 25 μM 1 hour prior to stimulation with 100 ng/ml LPS (E. coli serotype R515). After 24 hours, the supernatants were removed and analysed for levels of IL-12p40, IL-12p70, IL-23 and TNF-alpha using specific immunoassays. (n=9)
The concentration of cytokines in cell supernatants was determined using ELISA Duoset kits from R&D Systems in accordance with the manufacturers' instructions. Briefly, 100 μl/well of capture antibody (diluted to the appropriate concentration in PBS) was added to an ELISA plate (Nunc) and incubated overnight at room temperature. Plates were then washed three times with Wash Buffer (PBS+0.05% Tween-20) and blocked by adding 300 μl of Blocking buffer (1% (w/v) BSA/PBS) for a minimum of 1 h at room temperature. The washing step was repeated and 100 μl of samples and standards (diluted to appropriate concentrations) were added per well, in triplicate. Plates were then incubated at 2-4° C. overnight. The next day, plates were washed again and 100 μl of the biotinylated detection antibody was added to each well and incubated for 2 hours at room temperature. 100 μl of Streptavidin-horseradish-peroxidase (R&D Systems) was then added to each well, following another wash step. Plates were incubated for 20 min at room temperature. After the last washing step, 100 μl of tetramethylbenzidine (BD Biosciences) was added to each well and plates were left in the dark for 20 minutes or until a blue colour developed. Colour development was stopped by adding 50 μl of 1M sulphuric acid (Sigma-Aldrich) to the wells. The optical density was determined at 450 nm, using a VersaMax™ microplate reader (Molecular Devices). For each set of samples, a standard curve was generated and the values of unknown samples were calculated from the standard curve.
Bone marrow derived dendritic cells (BMDCs) were cultured as follows:
(Day 1) Bone marrow cells were harvested from the femur and tibia of Balb/c female mice by flushing the bone with RPMI 1640 complete media [supplemented with 10% foetal calf serum and 2% Penicilin-Steptomycin (Life Technologies, Ireland)] using a 27 gauge needle attached to a 10 ml syringe. The bone marrow cells were collected into a 50-ml Falcon tube and centrifuged at 1200 RPM for 5 minutes. […]

Assay [2] deals with BV2 murine microglial cells. The conditions noted are these: lipopolysaccharide-stimulated neuronal microglia; cited from earlier work.

The values that follow come from patent US20190380980A1, “A Method For Treating Peripheral Inflammatory Disease” (Dublin City University, priority 2015, published 2019).

Structures are written as SMILES.

In the case of `CCCCCCCC/C=C\CCCCCCCC(=O)NCc1ccccc1` [Compound 18-2, N-benzyloleamide], in assay [1], the “+LPS IL-12p40” value was “↑”, the “+LPS IL-12p70” value is given as “↑”, the “+LPS IL-23” value was “→” and the “+LPS TNF-α” value is recorded as “→”.

`CCCCCCCC/C=C\CCCCCCCC(=O)Nc1ccc(N(C)C)cc1` [Compound 19-2, N-(4-(dimethylamino)phenyl)oleamide]: in assay [1], the “+LPS IL-12p40” value is “→”, the “+LPS IL-12p70” value is “→”, the “+LPS IL-23” value was “→” and the “+LPS TNF-α” value is “→”.

For `CCCCCCCC/C=C\CCCCCCCC(=O)Nc1ccc(N(CC)CC)cc1` [Compound 20-1, N-(4-(diethylamino)phenyl)oleamide], in assay [1], the “+LPS IL-12p40” value is recorded as “→”, the “+LPS IL-12p70” value is recorded as “↓”, the “+LPS IL-23” value is reported as “→” and the “+LPS TNF-α” value is “→”.

On to `CCCCCCCC/C=C\CCCCCCCC(=O)NCc1ccc(OC)cc1` [Compound 21-2, N-(4-methoxybenzyl) oleamide], for which, in assay [1], the “+LPS IL-12p40” value was “↑”, the “+LPS IL-12p70” value was “↑”, the “+LPS IL-23” value was “↓” and the “+LPS TNF-α” value is listed as “→”.

Turning to `CCCCCCCC/C=C\CCCCCCCC(=O)NCc1cccc(OC)c1` [Compound 22-2, N-(3-methoxybenzyl) oleamide], in assay [1], the “+LPS IL-12p40” value was “↑”, the “+LPS IL-12p70” value is reported as “↑”, the “+LPS IL-23” value is reported as “↓” and the “+LPS TNF-α” value was “→”.

Turning to `CCCCCCCC/C=C\CCCCCCCC(=O)NCc1ccccc1OC` [Compound 23-2, N-(2-methoxybenzyl) oleamide], in assay [1], the “+LPS IL-12p40” value is “↑”, the “+LPS IL-12p70” value was “→”, the “+LPS IL-23” value was “↓” and the “+LPS TNF-α” value was “→”.

`CCCCCCCC/C=C\CCCCCCCC(=O)NCc1ccc(C(F)(F)F)cc1` [Compound 33-1, N-(4-(trifluoromethyl)benzyl)oleamide]: in assay [1], the “+LPS IL-12p40” value is given as “↑”, the “+LPS IL-12p70” value is recorded as “↑”, the “+LPS IL-23” value is reported as “→” and the “+LPS TNF-α” value was “→”.

`CCCCCCCC/C=C\CCCCCCCC(=O)NCc1cccc(C(F)(F)F)c1` [Compound 34-1, N-(3-(trifluoromethyl)benzyl)oleamide]: in assay [1], the “+LPS IL-12p40” value is given as “↑”, the “+LPS IL-12p70” value is reported as “→”, the “+LPS IL-23” value was “↓” and the “+LPS TNF-α” value was “→”.

As for `CCCCCCCC/C=C\CCCCCCCC(=O)NCc1ccccc1C(F)(F)F` [Compound 35-1, N-(2-(trifluoromethyl)benzyl)oleamide], in assay [1], the “+LPS IL-12p40” value is reported as “→”, the “+LPS IL-12p70” value is “→”, the “+LPS IL-23” value was “↓” and the “+LPS TNF-α” value is “→”.

As for `CCCCCCCC/C=C\CCCCCCCC(=O)Nc1ccc2ccccc2n1` [Compound 36-2, N-(quinolin-2-yl) oleamide], in assay [1], the “+LPS IL-12p40” value is “↓”, the “+LPS IL-12p70” value is recorded as “↓”, the “+LPS IL-23” value is recorded as “↓” and the “+LPS TNF-α” value is on record as “↓”.

For `CCCCCCCC/C=C\CCCCCCCC(=O)Nc1ccccn1` [Compound 37-1, N-(pyridin-2-yl) oleamide], in assay [1], the “+LPS IL-12p40” value is recorded as “→”, the “+LPS IL-12p70” value is “→”, the “+LPS IL-23” value is reported as “↓” and the “+LPS TNF-α” value is “↓”.

As to `CCCCCCCC/C=C\CCCCCCCC(=O)Nc1cccnc1` [Compound 38-1, N-(pyridin-3-yl) oleamide], in assay [1], the “+LPS IL-12p40” value was “↓”, the “+LPS IL-12p70” value is listed as “→”, the “+LPS IL-23” value is “↓” and the “+LPS TNF-α” value is recorded as “→”.

Consider `CCCCCCCC/C=C\CCCCCCCC(=O)Nc1ccncc1` [Compound 39-1, N-(pyridin-4-yl) oleamide], for which, in assay [1], the “+LPS IL-12p40” value was “↓”, the “+LPS IL-12p70” value is “↓”, the “+LPS IL-23” value is on record as “→” and the “+LPS TNF-α” value is recorded as “→”.

On to `NC(=O)COCCCCOc1ccccc1` [Compound 50-2, 2-(4-phenoxybutoxy) acetamide], for which, in assay [1], the “+LPS IL-12p40” value was “→”, the “+LPS IL-12p70” value is given as “→”, the “+LPS IL-23” value was “↓” and the “+LPS TNF-α” value was “→”.

For the compound `NC(=O)COCCCOCc1ccccc1` [Compound 51-2, 2-(3-(benzyloxy)propoxy) acetamide], in assay [1], the “+LPS IL-12p40” value is reported as “↓”, the “+LPS IL-12p70” value is “↓”, the “+LPS IL-23” value is “↓” and the “+LPS TNF-α” value is “→”.

`CCCCCCCC/C=C\CCCCCCCC(N)=O` [Ole, 9(Z)-Octadecenamide]: in assay [1], the “+LPS IL-12p40” value is given as “↓”, the “+LPS IL-12p70” value is on record as “↓”, the “+LPS IL-23” value is “↓” and the “+LPS TNF-α” value is given as “→”. The immunomodulatory effect result in assay [1] is given as “immunomodulatory effect”. In assay [2], the “activation of p38, ERK, PI3-kinase/Akt, ROS accumulation and NF-κB activation” value is listed as “blocks activation”; the pro-inflammatory mediators entry is “suppressor of pro-inflammatory mediators”.

Regarding `CCCCC/C=C\C/C=C\C/C=C\C/C=C\CCCC(N)=O` [arachidonamide], in assay [1], the immunomodulatory effect entry is “immunomodulatory effect”.

As to `CCCCC/C=C\C/C=C\CCCCCCCC(N)=O` [linoleamide], the immunomodulatory effect result in assay [1] was “immunomodulatory effect”.

With `CC/C=C\C/C=C\C/C=C\CCCCCCCC(N)=O` [linolenamide], the immunomodulatory effect result in assay [1] is “immunomodulatory effect”.

`CCCCCCCCCCCCCCCC(N)=O` [palmitamide]: the immunomodulatory effect entry in assay [1] is “immunomodulatory effect”.

In the case of `CCCCCC/C=C\CCCCCCCC(N)=O` [palmitoleamide], the immunomodulatory effect result in assay [1] is “immunomodulatory effect”.

`CCCCCCCCCCCCCCCCCC(N)=O` [stearamide]: the immunomodulatory effect result in assay [1] was “immunomodulatory effect”.
